This is an account of results in patent US8822414B2, “Heterocyclic compounds suitable for the treatment of dyslipidemia” (Cadila Healthcare Limited, priority 2010, dated 2014).

In this test the target is pro-protein convertase of the subtype nine binding to recombinant LDLR-AB domain (Homo sapiens, UniProt Q8NBP7). Put plainly: in vitro quantitative solid phase binding assay (ELISA) of the subtype nine pro-protein convertase to immobilized LDLR. The procedure: The in vitro binding assay described hereinafter is a quantitative solid phase binding assay for determining the efficacy of the compounds. Plates were pre-coated with a recombinant LDLR-AB domain, which binds to the gene pro-protein convertase of the subtype nine. Test compound at different concentrations was added to the subtype gene and added to LDLR immobilized on the wells. The amount of bound gene is measured by binding it with biotinylated anti-His-tag monoclonal antibody, followed by binding with horseradish peroxidase conjugated streptavidin substrate. The color was quantified by ELISA reader at […] which reflects the relative amount of “the gene” that binds to LDLR in presence and absence of the inhibitor. EC50 values were calculated by nonlinear regression analysis using graph pad prism software. Each concentration point represents values in duplicates.
pro-protein convertase of the subtype nine binding to recombinant LDLR-AB domain, sequence (Q8NBP7 153-692): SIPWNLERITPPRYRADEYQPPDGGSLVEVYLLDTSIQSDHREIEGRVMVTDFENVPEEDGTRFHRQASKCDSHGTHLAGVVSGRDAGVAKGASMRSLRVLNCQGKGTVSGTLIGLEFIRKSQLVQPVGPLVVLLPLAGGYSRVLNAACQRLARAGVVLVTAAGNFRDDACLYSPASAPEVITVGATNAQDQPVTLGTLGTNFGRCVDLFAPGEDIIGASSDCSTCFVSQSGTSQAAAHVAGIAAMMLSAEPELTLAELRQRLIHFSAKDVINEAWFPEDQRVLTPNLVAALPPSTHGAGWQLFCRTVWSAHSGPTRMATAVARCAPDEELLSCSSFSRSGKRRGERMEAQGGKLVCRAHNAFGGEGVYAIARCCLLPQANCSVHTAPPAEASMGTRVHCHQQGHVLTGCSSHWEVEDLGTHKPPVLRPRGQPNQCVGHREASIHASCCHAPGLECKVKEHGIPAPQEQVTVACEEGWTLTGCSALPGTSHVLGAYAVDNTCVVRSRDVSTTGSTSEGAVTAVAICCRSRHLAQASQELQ
pro-protein convertase of the subtype nine binding to recombinant LDLR-AB domain, sequence (Q8NBP7 31-152 partner limits assumed): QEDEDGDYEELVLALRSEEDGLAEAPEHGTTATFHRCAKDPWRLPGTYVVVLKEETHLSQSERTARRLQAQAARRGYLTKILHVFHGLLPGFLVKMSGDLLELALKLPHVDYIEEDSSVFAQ

The structures appear in SMILES notation.

As for `CCC(=NOCc1ccc(C(F)(F)F)cc1)c1ccc(NCC(=O)NCC2CCOCC2)nc1` [Example 23, N-((tetrahydro-2H-pyran-4-yl)methyl)-2-((5-(1-(((4-(trifluoromethyl)benzyl)oxy)imino)propyl)pyridin-2-yl)amino)acetamide], the inhibition at 1 µM (Concentration 1 μM) is 30%. Moreover, the inhibition at 10 µM (Concentration 10 μM) came out at 42%. For the same compound, under “Concentration 100 μM”, the inhibition at 100 µM was 47%.
As for `Cc1cc(C(Cc2ccccc2)=NOCc2ccc(F)cc2)ccc1OCC(=O)NCC1CCOCC1` [Example 34, 2-(4-(1-(((4-fluorobenzyl)oxy)imino)-2-phenylethyl)-2-methylphenoxy)-N-((tetrahydro-2H-pyran-4-yl)methyl)acetamide], the inhibition at 1 µM (Concentration 1 μM) turned out to be 7%. In addition, where the note is “Concentration 10 μM”, the inhibition at 10 µM stood at 13%. In addition, for the setting “Concentration 100 μM”, the inhibition at 100 µM was 32%.
With `CC(=NOCc1ccc(C#N)cc1)c1ccc(OCC(=O)NCC2CCOCC2)nc1` [Example 21, 2-((5-(1-(((4-cyanobenzyl)oxy)imino)ethyl)pyridin-2-yl)oxy)-N-((tetrahydro-2H-pyran-4-yl)methyl)acetamide], the inhibition at 100 µM (Concentration 100 μM) was determined as 15%.
Take `CC(=NOCc1ccc(C(F)(F)F)cc1)c1ccc(NCC(=O)NCC2CCOCC2)cc1` [Example 20, N-((tetrahydro-2H-pyran-4-yl)methyl)-2-((4-(1-(((4-(trifluoromethyl)benzyl)oxy)imino)ethyl)phenyl)amino)acetamide]: the inhibition at 1 µM (Concentration 1 μM) is 20%. Also, the inhibition at 10 µM (Concentration 10 μM) is 34%. In addition, the inhibition at 100 µM (Concentration 100 μM) was determined as 57%.
`Cc1cc(C(Cc2ccccc2)=NOCc2ccc(Cl)cc2)ccc1OCC(=O)NCC1CCOCC1` [Example 36]: the “% Inhibition” value (Concentration 1 μM) is on record as 6%, the “% Inhibition” value (Concentration 10 μM) is 9% and the “% Inhibition” value (Concentration 100 μM) is given as 36%.
Consider `CC(=NOCc1ccc(C(F)(F)F)cc1)c1ccc(NCC(=O)NCC2CCOCC2)nc1` [Example 4, N-((tetrahydro-2H-pyran-4-yl)methyl)-2-((5-(1-(((4-(trifluoromethyl)benzyl)oxy)imino)ethyl)pyridin-2-yl)amino)acetamide], for which, under “Concentration 1 μM”, the inhibition at 1 µM stood at 34%. Also, the inhibition at 10 µM (Concentration 10 μM) amounted to 39%. Further, the inhibition at 100 µM (Concentration 100 μM) was 51%.
In the same order, the values of `O=C(COc1ccc(C(CN2CCOCC2)=NOCc2ccc(C(F)(F)F)cc2)cc1)NCC1CCOCC1` [Example 14, 2-(4-(2-morpholino-1-(((4-(trifluoromethyl)benzyl)oxy)imino)ethyl)phenoxy)-N-((tetrahydro-2H-pyran-4-yl)methyl)acetamide] are 15%, 31% and 41%.
In the same order, the values of `CCC(=NOCc1ccc(C(F)(F)F)cc1)c1ccc(NCC(=O)NCC2CCOCC2)cc1` [Example 5, N-((tetrahydro-2H-pyran-4-yl)methyl)-2-((4-(1-(((4-(trifluoromethyl)benzyl)oxy)imino)propyl)phenyl)amino)acetamide] are 34%, 40% and 50%.
As for `CCC(=NOCc1ccc(C#N)cc1)c1ccc(OCC(=O)NCC2CCOCC2)nc1` [Example 28, 2-((5-(1-(((4-cyanobenzyl)oxy)imino)propyl)pyridin-2-yl)oxy)-N-((tetrahydro-2H-pyran-4-yl)methyl)acetamide], the inhibition at 100 µM (Concentration 100 μM) was 23%.
Take `O=C(COc1ccc2c(c1)CCCC2=NOCc1ccc(C(F)(F)F)cc1)NCC1CCOCC1` [Example 48, N-((tetrahydro-2H-pyran-4-yl)methyl)-2-((5-(((4-(trifluoromethyl)benzyl)oxy)imino)-5,6,7,8-tetrahydronaphthalen-2-yl)oxy)acetamide]: the inhibition at 1 µM (Concentration 1 μM) was 17%. The inhibition at 10 µM (Concentration 10 μM) is 42%. In addition, the inhibition at 100 µM (Concentration 100 μM) is 64%.
As to `CCC(=NOCc1ccc(S(C)(=O)=O)cc1)c1ccc(OCC(=O)NCC2CCOCC2)cc1` [Example 42, 2-(4-(1-(((4-(methylsulfonyl)benzyl)oxy)imino)propyl)phenoxy)-N-((tetrahydro-2H-pyran-4-yl)methyl)acetamide], the inhibition at 10 µM (Concentration 10 μM) was 9%. Further, the inhibition at 100 µM (Concentration 100 μM) worked out at 51%.
Regarding `O=C(COc1ccc(C(Cc2ccccc2)=NOCc2ccc(F)cc2)cc1)NCC1CCOCC1` [Example 35, 2-(4-(1-(((4-fluorobenzyl)oxy)imino)-2-phenylethyl)phenoxy)-N-((tetrahydro-2H-pyran-4-yl)methyl)acetamide], for the setting “Concentration 1 μM”, the inhibition at 1 µM worked out at 22%. In addition, the inhibition at 10 µM (Concentration 10 μM) came out at 13%. Also, where the note is “Concentration 100 μM”, the inhibition at 100 µM was determined as 25%.
As for `O=C(COc1ccc2c(c1)CCCC2=NOCc1ccc(Cl)cc1)NCC1CCOCC1` [Example 49, 2-((5-(((4-chlorobenzyl)oxy)imino)-5,6,7,8-tetrahydronaphthalen-2-yl)oxy)-N-((tetrahydro-2H-pyran-4-yl)methyl)acetamide], the inhibition at 10 µM (Concentration 10 μM) was 7%. The inhibition at 100 µM (Concentration 100 μM) was found to be 11%.
With `Cc1ccc(CON=C(Cc2ccccc2)c2ccc(OCC(=O)NCC3CCOCC3)cc2)cc1` [Example 33, 2-(4-(1-(((4-methylbenzyl)oxy)imino)-2-phenylethyl)phenoxy)-N-((tetrahydro-2H-pyran-4-yl)methyl)acetamide], the inhibition at 1 µM (Concentration 1 μM) was found to be 10%. For the same compound, the inhibition at 10 µM (Concentration 10 μM) stood at 10%. In addition, the inhibition at 100 µM (Concentration 100 μM) is 28%.
As for `CCC(=NOCc1ccc(F)cc1)c1ccc(OCC(=O)NCC2CCOCC2)nc1` [Example 27, 2-((5-(1-(((4-fluorobenzyl)oxy)imino)propyl)pyridin-2-yl)oxy)-N-((tetrahydro-2H-pyran-4-yl)methyl)acetamide], the inhibition at 1 µM (Concentration 1 μM) is 10%. The inhibition at 10 µM (Concentration 10 μM) is 15%. For the same compound, where the note is “Concentration 100 μM”, the inhibition at 100 µM was determined as 29%.
For `COCC(=NOCc1ccc(C(F)(F)F)cc1)c1ccc(OCC(=O)NCC2CCOCC2)cc1` [Example 30, 2-(4-(2-methoxy-1-(((4-(trifluoromethyl)benzyl)oxy)imino)ethyl)phenoxy)-N-((tetrahydro-2H-pyran-4-yl)methyl)acetamide], the inhibition at 100 µM (Concentration 100 μM) came out at 36%.
Consider `O=C(COc1ccc(C(Cc2ccccc2)=NOCc2ccc(C(F)(F)F)cc2)cc1)NCC1CCOCC1` [Example 11, 2-(4-(2-phenyl-1-(((4-(trifluoromethyl)benzyl)oxy)imino)ethyl)phenoxy)-N-((tetrahydro-2H-pyran-4-yl)methyl)acetamide], for which the inhibition at 1 µM (Concentration 1 μM) came out at 20%. Further, the inhibition at 5 µM (Concentration 5 μM) amounted to 23%. The inhibition at 10 µM (Concentration 10 μM) is 49%. The inhibition at 100 µM (Concentration 100 μM) stood at 61%.
Regarding `CCC(=NOCc1ccc(C)cc1)c1ccc(OCC(=O)NCC2CCOCC2)nc1` [Example 25, 2-((5-(1-(((4-methylbenzyl)oxy)imino)propyl)pyridin-2-yl)oxy)-N-((tetrahydro-2H-pyran-4-yl)methyl)acetamide], the inhibition at 1 µM (Concentration 1 μM) came out at 28%. For the same compound, under “Concentration 10 μM”, the inhibition at 10 µM was determined as 34%. Further, the inhibition at 100 µM (Concentration 100 μM) was 50%.
Regarding `O=C(COc1ccc(C=NOCc2ccc(C(F)(F)F)cc2)cn1)NCC1CCOCC1` [Example 19, N-((tetrahydro-2H-pyran-4-yl)methyl)-2-((5-((((4-(trifluoromethyl)benzyl)oxy)imino)methyl)pyridin-2-yl)oxy)acetamide], for the setting “Concentration 10 μM”, the inhibition at 10 µM was determined as 40%. Where the note is “Concentration 100 μM”, the inhibition at 100 µM was 46%.
